Test results published in patent US7411066B2, “Amino methylated 2-pyridinones” (priority 2004, dated 2008).

Experiments:
[1] = tested on: NU14 adherence to type 5637 bladder cell line; test: Infection of bladder cells in vitro (Adherence Assay); type: cell-based, Escherichia coli; settings: 5637 bladder cells; untreated NU14 = 100%
Description: Infection of Bladder Cells in vitro (Adherence Assay)
The infection of bladder cells in vitro was carried out according to the following steps:
Preparation of Tissue Culture Cells (Type 5637 Bladder Cell Line)
1. Place 1 ml of RPMI/10% FBS containing 1:20 dilution of 5637 cells in each well of 24 well plate.
2. Place in incubator for 3 days or until confluent growth.
Preparation of Bacterial Cells (Strains NU14 and UTI89)
1. Inoculate 20 ml of LB containing NU14 with a single colony or a loop from a frozen stock to a 250 ml flask.
2. Static growth at 37° C. for 2 days to induce pili production.
3. Harvest cells at 4,000×g for 10 minutes.
4. Resuspend in 5 ml of PBS ([…])
Infection of Tissue Culture Cells In Vitro
1. Wash each well with PBS MgCl2/CaCl2.
2. Place 1 ml of fresh medium to each well.
3. Add 10 μl of bacterial cells to each well. Triplicate plates.
4. Spin plate at 1800 rpm for 5 minutes.
5. View under 40× to see−2-3 bacterial cells/epithelial cell.
6. Place in lower incubator for 2 hours.
7. Wash two plates 5× with PBS MgCl2/CaCl2. Lyse by addition of 0.1% sarkosyl/0.5% glucose/PBS—MgCl2/CaCl2 one set and dilute for CFU.

NU14 biofilm = test: Biofilm Assay (crystal violet stain on PVC plates); type: cell-based, Escherichia coli; settings: 48 hrs at room temperature, absorbance at 600 nm; untreated NU14 = 100%
Description: The Biofilm Assay was carried out according to the following steps:
Day 1 Set Up Biofilm Growth on PVC Plates
1. Sterilize PVC plates (96-well round bottom polyvinyl chloride [PVC] plates; Falcon #353911) and PVC Lids (Falcon #353913) in tissue culture hood under UV irradiation for at least 30 min.
2. Make dilution (from overnight cultures) or suspension (from either colonies on plates or freezer stocks) of bacterial cultures. Make enough of bacterial cultures for the number of wells needed. Bacterial culture need to be very dilute: at least 1:1,000 fold dilution from overnight cultures or a small quantity from colonies or freezer stocks.
3. Add 100 μl of bacterial cultures into each well. Make sure to have 1 well with LB alone as negative control and 1 well without anything for blank.
4. Cover plates with lids and leave plates undisturbed at room temperature for 48 hrs.
Day 3 Assay Biofilm With Crystal Violet Stain
5. Prepare enough PBS (w/out Mg^2+ Ca^2+) to wash biofilm plates (need at least 3 L PBS for 1-5 plates). Could use mpH2O instead of PBS.
6. Get a clean 4 L plastic beaker. Cover the bench with a large piece of absorbent pad.
7. Fill 3 containers (large enough to dip the 96-well plates in) with PBS.
8. Start washing a biofilm plate by dumping out bacterial cultures into the beaker. (Treat contents in this beaker as biohazard. Need to bleach the content before emptying it into drain.)
9. Fill the biofilm plate in the first PBS container and shake off PBS in the beaker. Rinse the biofilm 1× in the first PBS container. Put the biofilm plate into the second PBS container and rinse 2×.
10. Put the biofilm plate in the third PBS container and let sit.
11. Proceed to wash a second biofilm plate if there are any.
12. While the second biofilm plate is in the second container, rinse the first biofilm plate 1× and remove it from PBS. Decant residual PBS by banging the plate on paper towels on the bench. Leave the plate up-side-down on a clean paper towel and let the plate dry.
13. Put the second biofilm plate into the third PBS container and let sit.
14. Proceed to wash a third biofilm plate if applicable.
15. Repeat steps 8-14 until all plates are washed.
16. Let washed biofilm plates air-dry for at least 15 min.
Crystal Violet Stain and Wash
17. Fill 4 containers (large enough to dip the 96-well plates in) with PBS.
18. With a multi-channel pipet, add 125 μl of 1% Crystal Violet (in mpH2O). Stain biofilm plates sequentially for 10 min. (not more than 15 min). Give at least 2 minute break in-between staining each plates. If more than 4 biofilm plates, might want to consider staining and washing them in batches.
19. Start washing biofilm plates as above.
20. Let the washed plates air-dry for 10 minor so. […]
24. Proceed immediately to the Plate Reader and read the absorbance of the plate at 600 nm. […]

SMILES: Cc1c(-c2ccccc2)c2n(c(=O)c1CN(C)C)[C@H](C(=O)[O-])CS2.[Li+]
- Adherence Assay % of Wild Type [1]: 97.6%
- Bioflim Assay % of Wild Type (NU14 biofilm): 73.1%

SMILES: CN(C)Cc1c(Cc2cccc3ccccc23)c(-c2ccccc2)c2n(c1=O)[C@H](C(=O)[O-])CS2.[Li+]
- Adherence Assay % of Wild Type [1]: 21.8%
- Bioflim Assay % of Wild Type (NU14 biofilm): 6.9%

SMILES: O=C([O-])[C@@H]1CSc2c(-c3ccccc3)c(Cc3cccc4ccccc34)c(CN3CCOCC3)c(=O)n21.[Li+]
- Adherence Assay % of Wild Type [1]: 14.3%
- Bioflim Assay % of Wild Type (NU14 biofilm): 6.8%

SMILES: O=C([O-])[C@@H]1CSc2c(C3CC3)c(Cc3cccc4ccccc34)c(CN3CCOCC3)c(=O)n21.[Li+]
- Adherence Assay % of Wild Type [1]: 12.2%
- Bioflim Assay % of Wild Type (NU14 biofilm): 8.3%
